Laboratory results reported in ChEMBL document CHEMBL3785070, “Synthesis and evaluation of novel opioid ligands with a C-homomorphinan skeleton” (Bioorg Med Chem, 2016).
pEC50, pKi: −log10 of the molar value.

Experiments:
CHO [1] = test: Selectivity ratio of Ki for human mu opioid receptor expressed in CHO cell membranes to Ki for human delta opioid receptor expressed in CHO cell membranes; assay type: cell-based
Mu-type opioid receptor [2] = biological target: T1, Mu-type opioid receptor (Homo sapiens, UniProt P35372); test: Agonist activity at human mu opioid receptor expressed in CHO cell membranes at 10 uM by [35S]GTPgammaS binding assay relative to DAMGO; assay type: functional
[3] = biological target: T2, Delta-type opioid receptor (Homo sapiens, UniProt P41143); test: Displacement of [3H]DPDPE from human delta opioid receptor expressed in CHO cell membranes
[4] = biological target: T2, Delta-type opioid receptor; test: Agonist activity at human delta opioid receptor expressed in CHO cell membranes by [35S]GTPgammaS binding assay; assay type: functional
[5] = biological target: T3, Kappa-type opioid receptor (Homo sapiens, UniProt P41145); test: Agonist activity at human kappa opioid receptor expressed in CHO cell membranes by [35S]GTPgammaS binding assay relative to U-69,593; assay type: functional
Mu-type opioid receptor [6] = biological target: T1, Mu-type opioid receptor; test: Displacement of [3H]DAMGO from human mu opioid receptor expressed in CHO cell membranes
CHO [7] = test: Selectivity ratio of Ki for human kappa opioid receptor expressed in CHO cell membranes to Ki for human delta opioid receptor expressed in CHO cell membranes; assay type: cell-based
Mu-type opioid receptor [8] = biological target: T1, Mu-type opioid receptor; test: Agonist activity at human mu opioid receptor expressed in CHO cell membranes by [35S]GTPgammaS binding assay; assay type: functional
[9] = biological target: T3, Kappa-type opioid receptor; test: Displacement of [3H]U-69,593 from human kappa opioid receptor expressed in CHO cell membranes
[10] = biological target: T2, Delta-type opioid receptor; test: Agonist activity at human delta opioid receptor expressed in CHO cell membranes by [35S]GTPgammaS binding assay relative to SNC80; assay type: functional
[11] = biological target: T3, Kappa-type opioid receptor; test: Agonist activity at human kappa opioid receptor expressed in CHO cell membranes by [35S]GTPgammaS binding assay; assay type: functional
Mu-type opioid receptor [12] = biological target: T1, Mu-type opioid receptor; test: Agonist activity at human mu opioid receptor expressed in CHO cell membranes by [35S]GTPgammaS binding assay relative to DAMGO; assay type: functional
[13] = biological target: T3, Kappa-type opioid receptor; test: Agonist activity at human kappa opioid receptor expressed in CHO cell membranes at 10 uM by [35S]GTPgammaS binding assay relative to U-69,593; assay type: functional

T3 sequence (P41145 whole entry): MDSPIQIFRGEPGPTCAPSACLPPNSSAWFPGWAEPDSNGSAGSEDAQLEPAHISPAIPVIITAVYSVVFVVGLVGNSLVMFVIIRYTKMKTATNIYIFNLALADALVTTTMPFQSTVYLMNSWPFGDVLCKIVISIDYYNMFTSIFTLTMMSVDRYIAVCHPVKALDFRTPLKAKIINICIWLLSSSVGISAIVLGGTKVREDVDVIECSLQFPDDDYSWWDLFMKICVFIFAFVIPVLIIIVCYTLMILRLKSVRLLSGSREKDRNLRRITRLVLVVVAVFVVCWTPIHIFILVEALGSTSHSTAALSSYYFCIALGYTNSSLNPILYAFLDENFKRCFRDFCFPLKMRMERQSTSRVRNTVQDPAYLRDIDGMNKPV
T1 sequence (P35372 whole entry): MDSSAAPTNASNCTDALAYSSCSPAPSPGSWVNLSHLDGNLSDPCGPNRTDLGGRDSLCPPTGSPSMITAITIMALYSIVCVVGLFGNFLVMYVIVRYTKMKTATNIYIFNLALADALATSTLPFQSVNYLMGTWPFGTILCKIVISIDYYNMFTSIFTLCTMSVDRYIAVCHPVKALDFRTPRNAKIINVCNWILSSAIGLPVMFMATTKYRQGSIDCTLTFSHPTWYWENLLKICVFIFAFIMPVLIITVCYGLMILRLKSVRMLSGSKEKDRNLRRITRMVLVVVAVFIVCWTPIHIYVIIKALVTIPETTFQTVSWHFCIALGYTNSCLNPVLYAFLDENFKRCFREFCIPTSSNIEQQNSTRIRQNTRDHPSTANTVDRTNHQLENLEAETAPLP
T2 sequence (P41143 whole entry): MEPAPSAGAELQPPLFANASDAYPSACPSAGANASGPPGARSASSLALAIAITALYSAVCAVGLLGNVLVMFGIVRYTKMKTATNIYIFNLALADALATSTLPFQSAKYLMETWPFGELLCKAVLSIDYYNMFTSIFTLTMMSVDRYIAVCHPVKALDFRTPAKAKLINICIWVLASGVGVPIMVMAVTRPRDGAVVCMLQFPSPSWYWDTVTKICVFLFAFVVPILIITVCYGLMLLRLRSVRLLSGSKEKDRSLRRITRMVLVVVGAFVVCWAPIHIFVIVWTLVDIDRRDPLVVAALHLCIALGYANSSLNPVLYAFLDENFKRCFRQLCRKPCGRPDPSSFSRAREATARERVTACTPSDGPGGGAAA

With O=C1C[C@]23CCN(CC4CC4)[C@H](Cc4ccc(O)cc42)[C@]3(O)C/C1=C\c1ccccc1 as the molecule, how does the Ratio Ki (CHO [1]) read?
The Ratio Ki was 8.

What about the Activity (Mu-type opioid receptor [2]) of the same molecule?
Its Activity is 25.6%.

What about the pKi [3] of the same molecule?
The pKi was 8.56.

What about the pEC50 [4] of the same molecule?
Its pEC50 is 7.90.

And the Emax [5]?
The Emax was 20.2%.

And the pKi (Mu-type opioid receptor [6])?
The pKi was 7.66.

And the Ratio Ki (CHO [7])?
Its Ratio Ki is 14.2.

What about the pEC50 (Mu-type opioid receptor [8]) of the same molecule?
Its pEC50 is less than 5.00.

And the pKi [9]?
The pKi was 7.41.

And the Emax [10]?
The Emax was 37%.

What about the pEC50 [11] of the same molecule?
The pEC50 was 8.10.

For O=C1C[C@]23CCN(CC4CC4)[C@H](Cc4ccc(O)cc42)[C@]3(O)C/C1=C/c1ccccc1, which Ratio Ki (CHO [1]) is on record?
Its Ratio Ki is 7.9.

What about the pKi [3] of the same molecule?
Its pKi is 9.23.

And the pEC50 [4]?
Its pEC50 is 8.50.

And the pKi (Mu-type opioid receptor [6])?
The pKi was 8.34.

And the Ratio Ki (CHO [7])?
The Ratio Ki was 16.5.

And the pEC50 (Mu-type opioid receptor [8])?
Its pEC50 is 7.26.

What about the pKi [9] of the same molecule?
Its pKi is 8.02.

What about the Emax (Mu-type opioid receptor [12]) of the same molecule?
The Emax was 31.8%.

And the Activity [13]?
Its Activity is 30%.

What about the Emax [10] of the same molecule?
Its Emax is 40.8%.

And the pEC50 [11]?
Its pEC50 is less than 5.00.

How did the Ratio Ki (CHO [1]) turn out when Oc1ccc2c(c1)[C@]13CCN(CC4CC4)[C@@H](C2)[C@]1(O)Cc1c([nH]c2ccccc12)C3 was run?
Its Ratio Ki is 261.

What about the Activity (Mu-type opioid receptor [2]) of the same molecule?
Its Activity is 33%.

What about the Emax [5] of the same molecule?
Its Emax is 15.4%.

What about the Ratio Ki (CHO [7]) of the same molecule?
The Ratio Ki was 31.4.

What about the Emax [10] of the same molecule?
Its Emax is 38.9%.

Which results are given for Oc1ccc2c(c1)[C@]13CCN(CC4CC4)C(C2)[C@]1(O)Cc1cc2ccccc2nc1C3?
pKi [3]: 9.52; pEC50 [4]: 9.09; pKi (Mu-type opioid receptor [6]): 8.14; pEC50 (Mu-type opioid receptor [8]): < 5.00; pKi [9]: 8.49; pEC50 [11]: < 5.00

O=C1CCC[C@@]2(O)[C@H]3Cc4ccc(O)cc4[C@@]2(CCN3CC2CC2)C1 was tested. Which Ratio Ki (CHO [1]) did it give?
The Ratio Ki was 0.057.

And the Ratio Ki (CHO [7])?
The Ratio Ki was 0.062.

Which results are given for O=C1CCC[C@@]2(O)C3Cc4ccc(O)cc4[C@@]2(CCN3CC2CC2)C1?
pKi [3]: 7.92; pKi (Mu-type opioid receptor [6]): 9.16; pKi [9]: 9.13

What does the source list for Oc1ccc2c(c1)[C@]13CCN(CC4CC4)C(C2)[C@]1(O)CCc1cc2ccccc2nc1C3?
pKi [3]: 8.64; pEC50 [4]: 8.14; pKi (Mu-type opioid receptor [6]): 7.75; pEC50 (Mu-type opioid receptor [8]): 7.94; pKi [9]: 8.37; pEC50 [11]: 7.55

With O=C1C[C@]23CCN(CC4CC4)C(Cc4ccc(O)cc42)[C@]3(O)CC/C1=C\c1ccccc1 as the molecule, how does the pKi [3] read?
The pKi was 9.19.

What about the pEC50 [4] of the same molecule?
Its pEC50 is less than 5.00.

What about the pKi (Mu-type opioid receptor [6]) of the same molecule?
Its pKi is 8.24.

And the pKi [9]?
The pKi was 8.04.

And the pEC50 [11]?
The pEC50 was 7.83.

Which results are given for O=C1C[C@]23CCN(CC4CC4)C(Cc4ccc(O)cc42)[C@]3(O)CC/C1=C/c1ccccc1?
pKi [3]: 8.01; pEC50 [4]: 8.74; pKi (Mu-type opioid receptor [6]): 7.28; pEC50 (Mu-type opioid receptor [8]): 7.72; pKi [9]: 7.76; pEC50 [11]: 7.67

Which results are given for O=C1/C(=C/c2ccccc2)C[C@@]2(O)[C@H]3Cc4ccc(O)c5c4[C@@]2(CCN3CC2CC2)[C@H]1O5 [BNTX]?
Ratio Ki (CHO [1]): 3; pKi [3]: 8.45; pKi (Mu-type opioid receptor [6]): 7.98; Ratio Ki (CHO [7]): 8; pKi [9]: 7.55

Which Ratio Ki (CHO [1]) does the source give for O=C1CC[C@@]2(O)[C@H]3Cc4ccc(O)cc4[C@@]2(CCN3CC2CC2)C1 here?
The Ratio Ki was 0.29.

And the pKi [3]?
The pKi was 8.58.

What about the pKi (Mu-type opioid receptor [6]) of the same molecule?
The pKi was 9.11.

What about the Ratio Ki (CHO [7]) of the same molecule?
Its Ratio Ki is 0.25.

And the pKi [9]?
The pKi was 9.19.

Oc1ccc2c(c1)[C@]13CCN(CC4CC4)C(C2)[C@]1(O)CCc1c([nH]c2ccccc12)C3 was tested. Which pKi [3] did it give?
Its pKi is 9.27.

What about the pEC50 [4] of the same molecule?
Its pEC50 is 8.97.

And the pKi (Mu-type opioid receptor [6])?
Its pKi is 8.24.

And the pEC50 (Mu-type opioid receptor [8])?
Its pEC50 is 8.21.

What about the pKi [9] of the same molecule?
Its pKi is 8.18.

And the pEC50 [11]?
Its pEC50 is 8.50.

Oc1ccc2c(c1)[C@]13CCN(CC4CC4)[C@H](C2)[C@]1(O)CCc1cc2ccccc2nc1C3 was tested. Which Ratio Ki (CHO [1]) did it give?
Its Ratio Ki is 7.7.

What about the Emax [5] of the same molecule?
The Emax was 43.9%.

And the Ratio Ki (CHO [7])?
The Ratio Ki was 1.9.

What about the Emax (Mu-type opioid receptor [12]) of the same molecule?
Its Emax is 31.2%.

And the Emax [10]?
The Emax was 104%.

What does the source list for O=C1C[C@]23CCN(CC4CC4)[C@H](Cc4ccc(O)cc42)[C@]3(O)CC/C1=C\c1ccccc1?
Ratio Ki (CHO [1]): 9; Emax [5]: 18.4%; Ratio Ki (CHO [7]): 14.1

How did the Ratio Ki (CHO [1]) turn out when Oc1ccc2c(c1)[C@]13CCN(CC4CC4)[C@H](C2)[C@]1(O)CCc1c([nH]c2ccccc12)C3 was run?
The Ratio Ki was 10.8.

And the Emax [5]?
Its Emax is 10%.

And the Ratio Ki (CHO [7])?
The Ratio Ki was 12.5.

And the Emax (Mu-type opioid receptor [12])?
The Emax was 23.5%.

What about the Emax [10] of the same molecule?
The Emax was 64.8%.

With O=C1C[C@]23CCN(CC4CC4)[C@H](Cc4ccc(O)cc42)[C@]3(O)CC/C1=C/c1ccccc1 as the molecule, how does the Ratio Ki (CHO [1]) read?
Its Ratio Ki is 5.3.

And the Emax [5]?
The Emax was 39.4%.

What about the Ratio Ki (CHO [7]) of the same molecule?
Its Ratio Ki is 1.8.

What about the Emax (Mu-type opioid receptor [12]) of the same molecule?
Its Emax is 38.6%.

And the Emax [10]?
The Emax was 27%.

Oc1ccc2c(c1)[C@]13CCN(CC4CC4)C(C2)[C@]1(O)Cc1c([nH]c2ccccc12)C3 was tested. Which pKi [3] did it give?
Its pKi is 10.02.

And the pEC50 [4]?
Its pEC50 is 8.85.

And the pKi (Mu-type opioid receptor [6])?
The pKi was 7.61.

And the pEC50 (Mu-type opioid receptor [8])?
Its pEC50 is less than 5.00.

What about the pKi [9] of the same molecule?
The pKi was 8.53.

And the pEC50 [11]?
The pEC50 was 8.42.

What does the source list for Oc1ccc2c(c1)[C@]13CCN(CC4CC4)[C@@H](C2)[C@]1(O)Cc1cc2ccccc2nc1C3?
Ratio Ki (CHO [1]): 23.8; Activity (Mu-type opioid receptor [2]): 20.8%; Ratio Ki (CHO [7]): 10.7; Activity [13]: 28.1%; Emax [10]: 82.6%
